One assay has as its target T1, GST-VEGFR2 (Homo sapiens, UniProt P35968).
T1 construct: GST-VEGFR2, baculovirus expressed recombinant constructs of the intracellular domains; made in house
Briefly: VEGF-R2 Enzyme Assay (VEGF-E2), LANCE method. It counts as biochemical. The conditions noted are these: for IC50: read-out: VEGFR2 PIC50 VEGFR-E2 assay. For orientation: In TR-FRET formats the signal depends on donor and acceptor labels being close together.

A further assay concerns the target Recombinant GST-Tie2 (Homo sapiens, UniProt Q02763). Put plainly: Tie2 Fluorescence Polarization Kinase Activity Assay (TIE2-FP). Type of assay: biochemical. On the procedure: Tie2 Fluorescence Polarization Kinase Activity Assay: (TIE2-FP)
Activation of Recombinant Tie2 Activation:
Recombinant GST-Tie2 is activated by incubating the enzyme in 20 mM Tris-HCl, pH 7.5, 12 mM MgCl2, 100 mM NaCl, 20 μM sodium vanidate, 1 mM DTT and 300 μM ATP at room temperature for 2 hours. The activation mixture is then passed through a NAP-25 desalting column (Pharmacia Biotech cat. no. 17-0852-02) to remove the free ATP. The activated enzyme is stored as aliquots at −80° C. in 20 mM Tris-HCl, pH 7.5 and 100 mM NaCl.
The final assay conditions are 50 mM HEPES, pH 7.5, 5% DMSO (when screening compounds), 200 μM ATP, 5 mM MgCl2, 1 mM DTT, 50 μM sodium vanidate, 1 nM activated enzyme, and 200 μM peptide. IC50's of compounds are measured under subsaturating ATP (200 μM) and varying concentrations of activated Tie2 and peptide substrate (RFWKYEFWR-OH; MW 1873 Da, TFA salt). Panvera Anti-phosphotyrosine antibody (Cat#P2840) and PTK Green Tracer (Cat#P2842) are used to detect the phosphorylated peptide. Polarization is measured on a TECAN Polarion in 138-second cycles for 30 minutes at room temperature. IC50's are then determined from the % polarization using normal calculation methods. The IC50 values are converted to pIC50 values, i.e., −log IC50 in Molar concentration.
In general terms: Fluorescence polarisation rises when a labelled molecule tumbles more slowly, as on binding a larger partner.

Assay [1] concerns the target T2, catalytic domain of human VEGFR3 (Homo sapiens, UniProt P35916, H890Q).
T2 construct: made in house; host or cells: Sf9 insect cells (baculovirus, pFastBac1)
Briefly: VEGFR-3 Homogenous Time-Resolved Fluorescence Assay (VEGFR-3-HTRF). It counts as biochemical. The following applies: for IC50: read-out: VEGFR3 PIC50 VEGFR-3-HTRF assay. In short, it runs like this:
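GST-tagged human VEGFR3 catalytic domain (aa 819–1298, Sf9-expressed), pre-autophosphorylated 45 min with ATP/Mg, then 1 nM enzyme with 0.36 μM biotinylated peptide, 75 μM ATP, 10 mM MgCl2, pH 7.2, 1.5 h at room temperature. EDTA stop; HTRF detection; IC50 from hyperbolic fit of % control.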

Assay [2] addresses T3, TIE2 intracellular domain/c-fms extracellular domain (TIE2/c-fms) chimeric protein (Homo sapiens, UniProt Q02763).
T3 construct: fused on or other part: c-fms (CSF1R) extracellular domain in place of TIE2's own ectodomain; it serves as the capture handle for the anti-c-fms ELISA; P07333 (Macrophage colony-stimulating factor 1 receptor)
Briefly: TIE-2 Autophosphorylation Assay (TIE2-C). Type of assay: cell-based. The following applies: TIE2/c-fms expressing mouse 3T3 cells. On the procedure:
TIE-2 Autophosphorylation Assay (TIE2-C)
The TIE-2 autophosphorylation assay uses an ELISA method and a TIE2 intracellular domain/c-fms extracellular domain (TIE2/c-fms) chimeric protein expressing mouse 3T3 cell line. This assay measures the autophosphorylation level of TIE2 protein expressed in cells. The cells are cultured in 96 well plates and grown in high glucose DMEM containing 10% serum at 37° C. in a humidified 10% CO2, 90% air incubator. On the day of the assay, the serum containing medium is removed from the cells and replaced with serum free medium for one hour. The test compound (diluted from a 10 mM stock in DMSO, final DMSO concentration is 0.1%) is incubated with TIE2/c-fms expressing cells for 30 minutes in serum free DMEM. Intrinsic cellular dephosphorylation of the receptor is blocked by the addition of the tyrosine phosphatase inhibitor, sodium orthovanadate, from a 100 mM aqueous stock to a final concentration of 1 mM. The culture media is removed by aspiration and the cells incubated for 30 to 60 mins on ice with lysis buffer containing 137 mM NaCl, 2 mM EDTA, 10% glycerol, 1 mM sodium ortho vanadate, 1×tyrosine phosphatase inhibitor cocktail (Sigma) and complete protease inhibitor cocktail (Roche) in 20 mM Tris-HCl (pH8.0). The cell extracts are transferred into Rat anti-c-fms antibody (Zymed-clone 12-2d6) ([…]) coated 96 well plates and incubated for 12 hrs at 4 degrees. The extracts are removed by aspiration and the plate, washed in a buffer comprising PBS, 0.05% Tween-20, 0.05% NP-40 and 5% SuperBlock (Pierce) followed by incubation with an HRP (horseradish peroxidase) conjugated anti-phosphotyrosine antibody, (Upstate Biotech) The plates are again washed with the aforementioned wash buffer and the colorimetric HRP substrate, TMB is added. The reaction progresses for 90 seconds and is stopped with the addition of 2M H2SO4. The optical density at 450 nm derived from HRP catalyzed TMB is measured with a plate reader capable of reading at the appropriate wavelength (e.g. SpectroMax from Molecular Dynamics). The percent inhibition of activity is calculated relative to non-vanadate treated control wells. The concentration of test compound that inhibits 50% of activity (IC50) is interpolated using nonlinear regression (Levernberg-Marquardt) and the equation, y=Vmax (1−x/(K+x))+Y2, where “K” is equal to the IC50.

For assay [3], the target named is T4, GST-TIE2 (intracellular domains of human TIE2) (Homo sapiens, UniProt Q02763).
T4 construct: made in house
Briefly: TIE-2 Enzyme Assay (TIE2-E2), LANCE method. Type of assay: biochemical. The conditions noted are these: read-out: TIE2 PIC50 TIE2-E2 assay. The essentials:
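GST-tagged human TIE2 intracellular domain (aa 762–1104), preactivated 2 h with 80 μM ATP, then 5 nM enzyme run 2 h at room temperature with 1 μM biotinylated D1–15 peptide, 80 μM ATP, HEPES pH 7.4, 2.4% DMSO. Phosphotyrosine detected by LANCE (Eu anti-pTyr/streptavidin-APC) after EDTA stop; IC50 by nonlinear regression, reported as pIC50.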

Where only a bound is given, the exact number is not on record here.

T1 sequence (P35968 786-1356 limits assumed): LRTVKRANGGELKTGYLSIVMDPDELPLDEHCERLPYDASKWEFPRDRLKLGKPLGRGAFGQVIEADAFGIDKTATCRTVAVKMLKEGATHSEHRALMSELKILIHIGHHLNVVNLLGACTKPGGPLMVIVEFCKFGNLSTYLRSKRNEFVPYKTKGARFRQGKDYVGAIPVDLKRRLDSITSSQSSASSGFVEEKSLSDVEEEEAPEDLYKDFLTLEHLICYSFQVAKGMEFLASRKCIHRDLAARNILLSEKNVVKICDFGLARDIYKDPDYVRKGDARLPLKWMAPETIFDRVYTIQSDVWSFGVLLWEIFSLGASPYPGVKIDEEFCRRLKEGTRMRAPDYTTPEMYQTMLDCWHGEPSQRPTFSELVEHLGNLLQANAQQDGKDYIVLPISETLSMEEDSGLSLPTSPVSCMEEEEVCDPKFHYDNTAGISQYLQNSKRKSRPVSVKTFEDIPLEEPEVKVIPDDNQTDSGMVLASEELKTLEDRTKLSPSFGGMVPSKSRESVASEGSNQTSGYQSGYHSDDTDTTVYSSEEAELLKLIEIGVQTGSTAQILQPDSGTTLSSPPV
T2 sequence (P35916 with tags, fused parts or gaps isoform P35916-1 H890Q): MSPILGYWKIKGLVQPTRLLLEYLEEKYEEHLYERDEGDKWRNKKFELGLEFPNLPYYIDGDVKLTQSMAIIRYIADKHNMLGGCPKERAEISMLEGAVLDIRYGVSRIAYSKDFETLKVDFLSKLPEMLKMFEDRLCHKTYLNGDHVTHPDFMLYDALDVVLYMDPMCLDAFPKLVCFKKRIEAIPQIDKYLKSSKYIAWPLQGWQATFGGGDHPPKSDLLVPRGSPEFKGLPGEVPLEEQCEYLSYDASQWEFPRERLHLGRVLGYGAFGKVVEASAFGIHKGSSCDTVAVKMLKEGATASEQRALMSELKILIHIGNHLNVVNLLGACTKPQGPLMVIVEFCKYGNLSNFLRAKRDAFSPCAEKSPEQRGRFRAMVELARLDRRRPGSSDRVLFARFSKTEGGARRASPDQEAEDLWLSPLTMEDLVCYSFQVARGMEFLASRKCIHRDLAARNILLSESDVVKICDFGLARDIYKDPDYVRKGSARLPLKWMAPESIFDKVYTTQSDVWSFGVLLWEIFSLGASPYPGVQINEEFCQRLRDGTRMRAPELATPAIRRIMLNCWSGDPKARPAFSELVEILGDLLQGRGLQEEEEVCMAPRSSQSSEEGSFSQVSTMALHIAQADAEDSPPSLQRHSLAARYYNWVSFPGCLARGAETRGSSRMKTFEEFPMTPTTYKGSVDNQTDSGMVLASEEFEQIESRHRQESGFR
Recombinant GST-Tie2, sequence (Q02763 23-1124): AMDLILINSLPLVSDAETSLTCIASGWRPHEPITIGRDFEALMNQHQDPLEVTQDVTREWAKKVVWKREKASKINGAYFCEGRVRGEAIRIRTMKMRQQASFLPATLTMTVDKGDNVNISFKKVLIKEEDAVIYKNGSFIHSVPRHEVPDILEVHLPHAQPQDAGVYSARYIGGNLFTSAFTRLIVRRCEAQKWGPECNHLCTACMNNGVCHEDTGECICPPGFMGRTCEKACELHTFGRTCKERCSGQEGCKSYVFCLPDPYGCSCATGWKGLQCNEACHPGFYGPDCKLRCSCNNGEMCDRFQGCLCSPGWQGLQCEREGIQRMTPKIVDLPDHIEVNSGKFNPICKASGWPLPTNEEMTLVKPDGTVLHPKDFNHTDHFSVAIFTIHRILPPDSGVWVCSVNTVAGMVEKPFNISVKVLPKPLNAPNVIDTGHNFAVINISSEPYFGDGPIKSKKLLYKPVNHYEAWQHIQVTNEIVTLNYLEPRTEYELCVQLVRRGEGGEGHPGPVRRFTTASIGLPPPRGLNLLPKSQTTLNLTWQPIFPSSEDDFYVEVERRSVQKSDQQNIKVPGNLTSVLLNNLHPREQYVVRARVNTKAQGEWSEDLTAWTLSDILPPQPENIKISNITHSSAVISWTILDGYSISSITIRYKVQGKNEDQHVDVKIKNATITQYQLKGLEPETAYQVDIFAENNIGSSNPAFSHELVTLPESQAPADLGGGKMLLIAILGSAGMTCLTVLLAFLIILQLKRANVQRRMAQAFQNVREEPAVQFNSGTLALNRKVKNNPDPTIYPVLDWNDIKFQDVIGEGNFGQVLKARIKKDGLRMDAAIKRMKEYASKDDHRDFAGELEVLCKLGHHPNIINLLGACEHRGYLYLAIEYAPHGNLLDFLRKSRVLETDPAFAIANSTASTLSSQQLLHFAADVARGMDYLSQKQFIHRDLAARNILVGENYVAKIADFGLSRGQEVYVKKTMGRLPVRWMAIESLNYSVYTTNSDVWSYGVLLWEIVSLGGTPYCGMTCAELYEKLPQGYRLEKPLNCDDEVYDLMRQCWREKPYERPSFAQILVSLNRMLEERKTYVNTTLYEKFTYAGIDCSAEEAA
T3 sequence (Q02763 whole entry, change not shown, the tested form may be a part): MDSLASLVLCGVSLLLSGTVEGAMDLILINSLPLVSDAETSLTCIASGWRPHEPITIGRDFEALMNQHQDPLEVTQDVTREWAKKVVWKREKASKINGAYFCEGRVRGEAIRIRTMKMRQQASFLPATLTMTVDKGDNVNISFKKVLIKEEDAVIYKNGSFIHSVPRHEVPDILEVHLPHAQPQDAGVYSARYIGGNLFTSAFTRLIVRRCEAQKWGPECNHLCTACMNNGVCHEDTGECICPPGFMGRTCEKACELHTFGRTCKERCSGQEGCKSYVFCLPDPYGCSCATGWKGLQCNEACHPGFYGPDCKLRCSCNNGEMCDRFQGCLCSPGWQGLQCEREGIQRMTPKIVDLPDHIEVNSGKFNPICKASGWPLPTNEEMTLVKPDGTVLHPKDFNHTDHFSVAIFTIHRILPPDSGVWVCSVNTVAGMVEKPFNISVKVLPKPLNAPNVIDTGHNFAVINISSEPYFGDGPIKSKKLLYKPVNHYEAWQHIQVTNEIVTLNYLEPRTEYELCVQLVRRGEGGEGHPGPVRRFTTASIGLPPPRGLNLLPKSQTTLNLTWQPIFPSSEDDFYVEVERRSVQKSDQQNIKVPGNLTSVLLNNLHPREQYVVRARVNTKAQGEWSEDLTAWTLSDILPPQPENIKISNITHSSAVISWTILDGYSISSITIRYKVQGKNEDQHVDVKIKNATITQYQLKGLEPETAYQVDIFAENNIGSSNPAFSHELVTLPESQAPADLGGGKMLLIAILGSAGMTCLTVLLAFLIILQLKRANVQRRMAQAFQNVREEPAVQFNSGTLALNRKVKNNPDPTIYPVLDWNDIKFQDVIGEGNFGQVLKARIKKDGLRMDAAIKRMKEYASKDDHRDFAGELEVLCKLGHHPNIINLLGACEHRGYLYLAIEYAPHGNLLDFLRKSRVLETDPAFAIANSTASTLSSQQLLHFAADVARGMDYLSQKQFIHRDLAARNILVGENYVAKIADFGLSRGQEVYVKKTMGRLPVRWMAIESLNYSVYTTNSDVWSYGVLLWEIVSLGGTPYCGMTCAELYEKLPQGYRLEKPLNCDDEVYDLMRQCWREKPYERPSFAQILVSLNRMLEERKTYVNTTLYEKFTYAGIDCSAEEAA
T4 sequence (Q02763 762-1104): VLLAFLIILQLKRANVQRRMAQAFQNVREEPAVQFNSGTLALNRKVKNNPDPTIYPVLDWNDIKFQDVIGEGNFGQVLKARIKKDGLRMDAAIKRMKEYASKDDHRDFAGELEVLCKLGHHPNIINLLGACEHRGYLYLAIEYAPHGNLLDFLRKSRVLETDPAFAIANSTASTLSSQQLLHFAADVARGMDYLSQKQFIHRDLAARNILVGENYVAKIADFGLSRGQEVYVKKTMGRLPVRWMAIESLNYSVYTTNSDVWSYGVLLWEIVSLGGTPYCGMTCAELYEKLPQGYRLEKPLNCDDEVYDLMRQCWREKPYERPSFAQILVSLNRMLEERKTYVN

In the case of “1-{4-[Benzyl-(2-morpholin-4-yl-ethylamino)-1H-pyrazolo[3,4-d]pyrimidin-3-yl]-phenyl}-3-(fluoro-trifluoromethyl-phenyl)-thiourea [Example 51]”, the “VEGFR2 PIC50 VEGFR-E2 assay” value on GST-VEGFR2 is recorded as “+ (+ = PIC50 = 5.00 to less than 6.00)”. Also, the “TIE2 % inhibition (at 10 μM) TIE2-FP assay” value at Recombinant GST-Tie2 (at 10 μM) was determined as 0%. Moreover, the “VEGFR3 PIC50 VEGFR-3-HTRF assay” value in assay [1] was “+ (+ = PIC50 = 5.00 to less than 6.00)”.
On to `Cn1nc(-c2ccc(NC(=O)Nc3cc(C(F)(F)F)ccc3F)cc2)c2cnc(NCCO)nc21` [Example 29, 1-(2-Fluoro-5-trifluoromethyl-phenyl)-3-{4-[(2-hydroxy-ethylamino)-methyl-1H-pyrazolo[3,4-d]pyrimidin-3-yl]-phenyl}-urea], for which, on Recombinant GST-Tie2, the IC50 is 100 to 300 nM.
The same measure, in the same setting: the value for `CCN(CC)CCNc1ncnc2c1c(-c1ccc(NC(=O)Nc3cc(C(F)(F)F)ccc3F)cc1)nn2C` [Example 33, 1-{4-[(2-Diethylamino-ethylamino)-methyl-1H-pyrazolo[3,4-d]pyrimidin-3-yl]-phenyl}-3-(2-fluoro-5-trifluoromethyl-phenyl)-urea] was not below 300 nM.
Consider `CCN(CC)CCCCNc1ncnc2c1c(-c1ccc(NC(=O)Nc3cc(C(F)(F)F)ccc3F)cc1)nn2C` [Example 34, 1-{4-[(4-Diethylamino-butylamino)-methyl-1H-pyrazolo[3,4-d]pyrimidin-3-yl]-phenyl}-3-(2-fluoro-5-trifluoromethyl-phenyl)-urea], for which the “VEGFR2 PIC50 VEGFR-E2 assay” value on GST-VEGFR2 was “+ (+ = PIC50 = 5.00 to less than 6.00)”. Moreover, on Recombinant GST-Tie2, the IC50 is less than 100 nM. Also, in assay [1], the “VEGFR3 PIC50 VEGFR-3-HTRF assay” value was “+ (+ = PIC50 = 5.00 to less than 6.00)”.
As for `Cn1nc(-c2ccc(NC(=O)Nc3cc(C(F)(F)F)ccc3F)cc2)c2cnc(NCCN3CCNC3=O)nc21` [Example 90], the IC50 on GST-VEGFR2 is 1000 to 10000 nM; in assay [2], not below 300 nM; in assay [3], 39.8 to 100 nM; in assay [1], 1000 to 10000 nM.
Regarding `Cn1nc(-c2ccc(NC(=O)Nc3cc(C(F)(F)F)ccc3F)cc2)c2cnc(NCCCCN3CCCC3)nc21` [Example 91, 1-(2-Fluoro-5-trifluoromethyl-phenyl)-3-{4-[1-methyl-6-[(4-pyrrolidin-1-yl)-butylamino]-1H-pyrazolo[3,4-d]pyrimidin-3-yl]-phenyl} urea], the IC50 at GST-VEGFR2 is 1000 to 10000 nM; in assay [2], 100 to 300 nM; in assay [3] it was not above 39.8 nM; in assay [1] it was 1000 to 10000 nM.
Consider `Cn1nc(-c2ccc(NC(=O)Nc3cc(C(F)(F)F)ccc3F)cc2)c2cnc(NCCCO)nc21` [Example 92, 1-(2-Fluoro-5-trifluoromethyl-phenyl)-3-{4-[1-methyl-6-(3-hydroxy-propylamino)-1H-pyrazolo[3,4-d]pyrimidin-3-yl]-phenyl} urea], for which the IC50 at GST-VEGFR2 was 1000 to 10000 nM; in assay [2], less than 100 nM; in assay [3] it was not above 39.8 nM; in assay [1], 1000 to 10000 nM.
In the case of `Cn1nc(-c2ccc(NC(=O)Nc3cc(C(F)(F)F)ccc3F)cc2)c2cnc(NCCCCO)nc21` [Example 93, 1-(2-Fluoro-5-trifluoromethyl-phenyl)-3-{4-[1-methyl-6-(4-hydroxy-butylamino)-1H-pyrazolo[3,4-d]pyrimidin-3-yl]-phenyl} urea], the IC50 is 1000 to 10000 nM on GST-VEGFR2, 100 to 300 nM in assay [2], not above 39.8 nM in assay [3] and 1000 to 10000 nM in assay [1].
Turning to `Cn1nc(-c2ccc(NC(=O)Nc3cc(C(F)(F)F)ccc3F)cc2)c2cnc(NCCCn3ccnc3)nc21` [Example 100, 1-(2-Fluoro-5-trifluoromethyl-phenyl)-3-{4-[1-methyl-6-(3-imidazol-1-yl-propylamino)-1H-pyrazolo[3,4-d]pyrimidin-3-yl]-phenyl} urea], the IC50 was 100 to 1000 nM at GST-VEGFR2, not below 300 nM in assay [2], not above 39.8 nM in assay [3] and 1000 to 10000 nM in assay [1].
For the molecule `Cn1nc(-c2ccc(NS(=O)(=O)c3cccc(Cl)c3Cl)cc2)c2cnc(NCCN3CCOCC3)nc21` [Example 147], the inhibition (in general, the drop in the measured response relative to a control, in per cent) at 10 µM at Recombinant GST-Tie2 is 49%.
Turning to `Cn1nc(-c2ccc(NS(=O)(=O)c3ccccc3F)cc2)c2cnc(NCCN3CCOCC3)nc21` [Example 148], the inhibition at 10 µM at Recombinant GST-Tie2 came to 36%.
On to `Cn1nc(-c2ccc(NS(=O)(=O)c3cc(Cl)sc3Cl)cc2)c2cnc(NCCN3CCOCC3)nc21` [Example 149], for which, at Recombinant GST-Tie2, the inhibition at 10 µM worked out at 38%.
On to `Cn1nc(-c2ccc(NS(=O)(=O)c3ccc(Cl)s3)cc2)c2cnc(NCCN3CCOCC3)nc21` [Example 150], for which the inhibition at 10 µM on Recombinant GST-Tie2 was 41%.
Take `Cc1cc(-c2nn(C)c3nc(NCCN4CCOCC4)ncc23)ccc1NS(=O)(=O)c1cccc(Cl)c1Cl` [Example 151]: at GST-VEGFR2, the IC50 is more than 10000 nM. Moreover, the inhibition at 10 µM at Recombinant GST-Tie2 worked out at 41%.
In the case of `Cc1cc(-c2nn(C)c3nc(NCCN4CCOCC4)ncc23)ccc1NS(=O)(=O)c1cccc(C(F)(F)F)c1` [Example 152], the inhibition at 10 µM on Recombinant GST-Tie2 is 13%.
As to `Cc1cc(-c2nn(C)c3nc(NCCN4CCOCC4)ncc23)ccc1NS(=O)(=O)c1ccccc1F` [Example 153], the inhibition at 10 µM on Recombinant GST-Tie2 was determined as 44%.
On to `Cc1cc(-c2nn(C)c3nc(NCCN4CCOCC4)ncc23)ccc1NS(=O)(=O)c1ccc(Cl)s1` [Example 154], for which the inhibition at 10 µM at Recombinant GST-Tie2 worked out at 37%.
Turning to `Cc1cc(-c2nn(C)c3nc(NCCN4CCOCC4)ncc23)ccc1NS(=O)(=O)c1cc(Cl)sc1Cl` [Example 155], the inhibition at 10 µM at Recombinant GST-Tie2 was 23%.
On to `Cn1nc(-c2ccc(NS(=O)(=O)c3cccc(C(F)(F)F)c3)cc2)c2cnc(NCCN3CCOCC3)nc21` [Example 156], for which the inhibition at 10 µM at Recombinant GST-Tie2 is 23%.
In the case of `Cn1nc(-c2ccc(NS(=O)(=O)c3cccc(C(F)(F)F)c3)c(C(F)(F)F)c2)c2cnc(NCCN3CCOCC3)nc21` [Example 157], the IC50 at GST-VEGFR2 is more than 10000 nM. On Recombinant GST-Tie2, the inhibition at 10 µM was determined as 0%.
As to `CC(=O)c1cccc(NC(=O)Nc2ccc(-c3nn(C)c4nc(NCCN5CCOCC5)ncc34)cc2C)c1` [Example 163], at Recombinant GST-Tie2, the inhibition at 10 µM came out at 25%. Moreover, in assay [3], the IC50 is more than 10000 nM.
